These results are taken from patent US7741340B2, “Hydroxy piperidine derivatives to treat gaucher disease” (Amicus Therapeutics, Inc., priority 2003, dated 2010).

The target in one data set is human GCase (Homo sapiens, UniProt P04062). Put plainly: Inhibitory activity against GCase (4-methylumbelliferyl β-glucoside substrate). It is filed as biochemical. The following applies: for IC50: 4-methylumbelliferyl β-glucoside at 3 mM, pH 5.2, 37° C., 30 min.
For data set [1] the following is noted: shortly after the start of the treatment; cited from earlier work.
The subject of data set [2] is Fibroblasts established from Gaucher patients with N370S/N370S mutation. Briefly: Chaperone rescue of residual GCase activity in Gaucher fibroblasts. It is filed as cell-based, human. The following applies: N370S homozygous fibroblasts, cultured 4 days with compound, at optimal concentration.

What is called IC50 is the concentration needed to halve the response being measured.

Sequence of human GCase (P04062 40-536): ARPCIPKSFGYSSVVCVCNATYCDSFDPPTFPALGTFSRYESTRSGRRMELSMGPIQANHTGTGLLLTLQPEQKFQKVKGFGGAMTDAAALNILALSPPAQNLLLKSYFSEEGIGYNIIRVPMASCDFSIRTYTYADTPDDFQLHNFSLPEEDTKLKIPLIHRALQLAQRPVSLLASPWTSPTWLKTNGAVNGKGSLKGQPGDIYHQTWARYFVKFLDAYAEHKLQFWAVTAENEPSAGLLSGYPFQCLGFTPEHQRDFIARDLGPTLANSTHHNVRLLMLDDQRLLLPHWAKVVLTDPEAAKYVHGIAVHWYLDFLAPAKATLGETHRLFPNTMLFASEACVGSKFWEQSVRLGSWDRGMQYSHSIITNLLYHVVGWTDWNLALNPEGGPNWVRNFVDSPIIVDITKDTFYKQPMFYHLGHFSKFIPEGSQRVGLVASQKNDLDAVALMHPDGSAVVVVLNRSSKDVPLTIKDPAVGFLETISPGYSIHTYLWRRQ

Take `CCCC[C@@H]1NC[C@@H](O)[C@H](O)[C@H]1CO` [Compound 11, (3R, 4R, 5R, 6S)-5-(Hydroxymethyl)-6-n-butyl-3,4-dihydroxypiperidine]: on human GCase, the IC50 stood at 160 nM. Besides, the “effect of 6-C substitution on potency towards GCase” value on human GCase (compared with the parent hydroxypiperidine) was “did not affect the potency”.

`CCCCCC[C@@H]1NC[C@@H](O)[C@H](O)[C@H]1CO` [Compound 12, (3R, 4R, 5R, 6S)-5-(Hydroxymethyl)-6-n-hexyl-3,4-dihydroxypiperidine] displayed a concentration for half-maximal inhibition (IC50) on human GCase of 4.2 nM. The “increase in potency over IFG” value on human GCase (relative to IFG) is “approximately 13 fold”.

Regarding `CCCCCCC[C@@H]1NC[C@@H](O)[C@H](O)[C@H]1CO` [Compound 13, (3R, 4R, 5R, 6S)-5-(Hydroxymethyl)-6-n-heptyl-3,4-dihydroxypiperidine], the IC50 on human GCase worked out at 1.8 nM.

On to `CCCCCCCC[C@@H]1NC[C@@H](O)[C@H](O)[C@H]1CO` [Compound 14, (3R, 4R, 5R, 6S)-5-(Hydroxymethyl)-6-n-octyl-3,4-dihydroxypiperidine], for which half-maximal inhibition against human GCase (IC50) was put at 0.8 nM.

Regarding `CCCCN1CC(O)C(O)C(O)C1CO` (stereo not shown) [N-butyl 1-deoxynojirimycin], the “patients with diarrhea (most frequent adverse effect)” value in data set [1] is given as 79%.

As for `OC[C@H]1CNC[C@@H](O)[C@@H]1O` [hydroxypiperidine, isofagomine], in data set [2], the “increase of residual enzyme activity in patient cells” value was “approximately 2 fold”.

“N-butyl hydroxypiperidine [reference compound]” gave an IC50 against human GCase of 44000 nM.

On human GCase, “N-nonyl hydroxypiperidine [reference compound]” came in with a half-inhibitory concentration (IC50) above 100000 nM.
